Assay results: paper PMC8960095 (Virus Genes, 2022)
Read-outs that look alike come from different tables or passages of the source.

Assays:
[1] = test system: wt CHIKV; conditions: MOI 0.005, cited from earlier work
[2] = test system: Vero-E6 cells; conditions: same study as IC50 against wt CHIKV; cited from earlier work
[3] = test system: wt CHIKV^Brazil; assay: IC50 evaluation: inhibition of CHIKV-induced cell death; assay type: cell-based, Chikungunya virus; conditions: for dose-dependent inhibition of CPE / efficacy in Vero-B4: Vero-B4 cells, CHIKV^Brazil, T-1105 range 5–100 µM
[4] = test system: wt CHIKV^Brazil; assay: as above; assay type: cell-based, Chikungunya virus; conditions: for IC50: Chikungunya virus, 96 h, read-out: IC50 (µM) U138; for dose-dependent inhibition of CPE / antiviral effect in U138: U138 cells, wt CHIKV^Brazil
[5] = test system: CHIKV^Brazil; assay type: cell-based, Chikungunya virus; conditions: MOI 0.64, RBV 410 µM (p < 0.001), HCQ 10 µM (p < 0.0001)
[6] = Toxicity assay; conditions: human, U138 cells (non-infected)
[7] = test system: U138 cells; assay: Toxicity assay; conditions: for cell damage in toxicity testing: non-infected U138, HCQ 10 µM, T-1105 10 and 50 µM, 4 days
[8] = Toxicity assay; conditions: African green monkey, Vero-B4 cells (non-infected)
[9] = test system: CHIKV Indian Ocean strain 899 (lab); conditions: MOI 0.01, Vero cells; cited from earlier work
[10] = test system: Vero cells; conditions: cited from earlier work
[11] = test system: Vero-B4 cells; assay: Toxicity assay; conditions: read-out: CC50 (µM) Vero-B4; non-infected Vero-B4 cells; MTS after 4 days

SMILES	IC50 ([1]; wt CHIKV)	CC50 [2]	IC50 ([3]; Chikungunya virus, 96 h, read-out: IC50 (µM) Vero-B4)	dose-dependent inhibition of CPE / efficacy in Vero-B4 [3]	IC50 [4]	dose-dependent inhibition of CPE / antiviral effect in U138 [4]	protection of U138 cells from CPE by wt CHIKV^Brazil compared with CHIKV^Ross [5]	CC50 at 4 days [6]	cell damage in toxicity testing [7]	CC50 at 4 days [8]	surviving cells ([3]; 1000 µM RBV (highest concentration), infected Vero-B4 cells, at MOI 0.325)	IC50 ([1]; comparable experiments in Vero-E6 cells)	viability at 4 days, 410 µM [6]	IC50 [9]	CC50 [10]	CC50 ([7]; read-out: CC50 (µM) U138, non-infected U138 cells, MTS after 4 days)	CC50 [11]
CCN(CC)CCCC(C)Nc1ccnc2cc(Cl)ccc12 (stereo not shown) [CQ, chloroquine]	5 to 10.6 µM	> 36 µM															
CCN(CCO)CCCC(C)Nc1ccnc2cc(Cl)ccc12 (stereo not shown) [Hydroxychloroquine, hydroxychloroquine]			18.3 µM	dose-dependent inhibition of CPE	4.14 µM	dose-dependent inhibition of CPE	significantly better	35.5 µM	Neither T-1105 nor HCQ led to significant cell damage	49.6 µM							
NC(=O)c1ncn([C@@H]2O[C@H](CO)[C@@H](O)[C@H]2O)n1 [Ribavirin, ribavirin]	424 µM	> 500 µM		dose-dependent inhibition of CPE	166 µM	dose-dependent inhibition of CPE	significantly better	> 500 µM		> 1000 µM	37.55 ± 6.15%	424 to 766 µM	70.4 ± 13.1%				
NC(=O)c1ncc[nH]c1=O [T-1105]				no dose-dependent efficacy		dose-dependent effect			Neither T-1105 nor HCQ led to significant cell damage					7 to 47 µM	571 µM	> 100 µM	> 100 µM
